Source: ChEMBL document CHEMBL1201862, “PubChem BioAssay data set” (2004)
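Following 48 hours of exposure in 96-well plates, responses at five concentrations were used to interpolate endpoints linearly. GI50 marks 50% less growth.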 Activity calls are given as the source filed them. Cut-off read from the data, not from the text of the source: active = GI50 up to about 1.1 µM and inactive = higher.

Assays:
Assay in all cases: DTP human tumour cell line panel, 48 h
[1] = test system: 786-0
[2] = test system: A498
[3] = test system: A549
[4] = test system: ACHN
[5] = test system: CAKI-1
[6] = test system: CCRF-CEM
[7] = test system: COLO 205
[8] = test system: DLD-1
[9] = test system: DMS-114
[10] = test system: DMS-273
[11] = test system: EKVX
[12] = test system: HCC 2998
[13] = test system: HCT-116
[14] = test system: HCT-15
[15] = test system: HL-60
[16] = test system: HOP-18
[17] = test system: HOP-62
[18] = test system: HOP-92
[19] = test system: HT-29
[20] = test system: IGROV-1
[21] = test system: K562
[22] = test system: KM-20L2
[23] = test system: KM12
[24] = test system: LOX IMVI
[25] = test system: LXFL 529
[26] = test system: M14
[27] = test system: M19-MEL
[28] = test system: MOLT-4
[29] = test system: Malme-3M
[30] = test system: NCI-H226
[31] = test system: NCI-H23
[32] = test system: NCI-H460
[33] = test system: NCI-H522
[34] = test system: OVCAR-3
[35] = test system: OVCAR-4
[36] = test system: OVCAR-5
[37] = test system: OVCAR-8
[38] = test system: RPMI-8226
[39] = test system: RXF 393
[40] = test system: SF-268
[41] = test system: SF-295
[42] = test system: SF-539
[43] = test system: SK-MEL-28
[44] = test system: SK-MEL-2
[45] = test system: SK-MEL-5
[46] = test system: SK-OV-3
[47] = test system: SN12C
[48] = test system: SNB-19
[49] = test system: SNB-75
[50] = test system: SNB-78
[51] = test system: SR
[52] = test system: SW-620
[53] = test system: U-251
[54] = test system: UACC-257
[55] = test system: UACC-62
[56] = test system: UO-31
[57] = test system: XF498

SMILES: OCCCCCNc1ccnc2cc(Cl)ccc12
- GI50 [1]: > 100 µM (inactive)
- GI50 [2]: > 100 µM (inactive)
- GI50 [3]: > 100 µM (inactive)
- GI50 [4]: > 100 µM (inactive)
- GI50 [5]: > 100 µM (inactive)
- GI50 [6]: > 100 µM (inactive)
- GI50 [7]: 33.7 µM (inactive)
- GI50 [8]: > 100 µM (inactive)
- GI50 [9]: 36.7 µM (inactive)
- GI50 [10]: > 100 µM (inactive)
- GI50 [11]: 86.3 µM (inactive)
- GI50 [12]: > 100 µM (inactive)
- GI50 [13]: 33.7 µM (inactive)
- GI50 [14]: > 100 µM
- GI50 [15]: 22 µM (inactive)
- GI50 [16]: > 100 µM (inactive)
- GI50 [17]: > 100 µM (inactive)
- GI50 [18]: > 100 µM (inactive)
- GI50 [19]: 29.2 µM (inactive)
- GI50 [20]: > 100 µM (inactive)
- GI50 [21]: 21.9 µM (inactive)
- GI50 [22]: > 100 µM (inactive)
- GI50 [23]: > 100 µM (inactive)
- GI50 [24]: > 10 µM (inactive)
- GI50 [25]: > 100 µM (inactive)
- GI50 [26]: > 100 µM (inactive)
- GI50 [27]: > 100 µM (inactive)
- GI50 [28]: 24.6 µM (inactive)
- GI50 [29]: > 100 µM (inactive)
- GI50 [30]: 74.5 µM (inactive)
- GI50 [31]: > 100 µM (inactive)
- GI50 [32]: 69.3 µM (inactive)
- GI50 [33]: 87.5 µM (inactive)
- GI50 [34]: 65.5 µM (inactive)
- GI50 [35]: > 100 µM (inactive)
- GI50 [36]: 83.2 µM (inactive)
- GI50 [37]: 64.1 µM (inactive)
- GI50 [38]: 31.3 µM (inactive)
- GI50 [39]: > 100 µM (inactive)
- GI50 [40]: > 100 µM (inactive)
- GI50 [41]: 47.3 µM (inactive)
- GI50 [42]: > 100 µM (inactive)
- GI50 [43]: > 100 µM (inactive)
- GI50 [44]: > 100 µM (inactive)
- GI50 [45]: 53.5 µM (inactive)
- GI50 [46]: > 100 µM (inactive)
- GI50 [47]: > 100 µM (inactive)
- GI50 [48]: > 100 µM (inactive)
- GI50 [49]: > 100 µM (inactive)
- GI50 [50]: > 100 µM (inactive)
- GI50 [51]: 19.5 µM (inactive)
- GI50 [52]: > 100 µM (inactive)
- GI50 [53]: > 100 µM (inactive)
- GI50 [54]: > 100 µM (inactive)
- GI50 [55]: > 100 µM (inactive)
- GI50 [56]: 24.2 µM (inactive)
- GI50 [57]: > 100 µM (inactive)
